Molecules are shown by their SMILES. “Also recorded” adds a separate entry of the source.

For series [1], the system named is rbApoAI locus. Briefly: TALEN mediated hApoAII knock-in animal production (embryo transfer). Conditions: RS-1 treatment. Format: in vivo, rabbit. The text has this: In another embodiment, we tested RS-1 on the TALEN system in vivo. The same TALEN pairs and donor DNAs used in the in vitro work were used to product hApoAII knock-in animals.
Without RS-1 treatment, only one founder animal was produced out of 227 embryos transferred (FIG. 2A). The knock-in efficiency was 0.4% calculated by total knock-in founders/total embryos transferred or 6.3% calculated by total knock-in founders/total kits born.
After RS-1 treatment, we transferred a total of 145 embryos and obtained 17 kits. Seven out of 17 kits carried indel but no knock-in alleles (41%).

In series [2] the test system is rabbit embryos (CFTR locus). Briefly: Cas9 mediated knock-in of CFTRdelF508 to rabbit CFTR locus in embryos in vitro. Conditions: CFTRdelF508, Cas9, RS-1 7.5 μM; control 13%. The format is cell-based. An excerpt: In another embodiment, we tested the effects of RS-1 supplementation on Cas9 mediated knock-in of CFTRdelF508, the most frequent mutation type identified in human cystic fibrosis (CF) patients, to the rabbit CFTR locus (FIG. 4).

In series [3] the test system is RLL-EGFP knock-in founder rabbits. Briefly: Germline transmission and allele distribution in embryos parented by RLL-EGFP founders. Format: in vivo, rabbit. The text has this: (§1) At the time of submitting this manuscript, five RLL-EGFP founders, three from the RS-1 treatment group, two from the non-treatment group, have reached sexual maturity. We bred these RLL-EGFP founder animals with WT counterparts.
To ultimately determine the frequencies of different types of alleles (i.e. WT, indel and knock-in) in the germ cells of knock-in animals, we used WT animals to breed with five RLL knock-in founders, 2 derived without RS-1 treatment and the other 3 with RS-1 treatment. Embryos were produced from founders of the RS-1 treated group (n=72) and the non-treated group (n=66), sequenced, and categorized as WT, indel, or knock-in based on the allele sequence (FIG. 2I). Similar percentage of WT alleles (17 vs. 18%) are found between these two groups. […] It appears that knock-in events take place at the expense of KO because the overall mutation rates (indel+knock-in) were similar between these two groups.

In series [4] the test system is rabbit embryos (ROSA26 like locus, RLL). Briefly: Cas9 mediated RLL-EGFP knock-in in rabbit embryos in vitro. Format: cell-based. The protocol: (§2) In one embodiment, we designed sgRNA targeting a ROSA26 like locus (RLL) in the rabbit genome (FIG. 2E). We next determined the effects of SCR7, an NHEJ inhibitor, and RS-1, an HDR enhancer on the knock-in success rates. Donor template DNAs were co-microinjected with Cas9 mRNA and sgRNA for RLL locus. After injection, the embryos were treated for 20 h in a serial concentration of SCR7: 0 μM (control), 20 μM, 40 μM, and 80 μM, or in RS-1 at 0 μM (control), 7.5 μM, and 15 μM.
(§3) In one embodiment, we microinjected 79 embryos with RAD51 mRNA, in addition to sgRNA, Cas9 mRNA and donor DNAs (FIG. 3A). RAD51 recombinase is a key player for homologous recombination and the repair of DNA DSBs (reference 13). Since it has been reported that RS-1 stimulates RAD51 (reference 12), we reasoned that including RAD51 mRNA in the microinjection mix would yield similar improvements on the knock-in efficiency as achieved with RS-1.

Series [5] concerns founder rabbits. Briefly: Health and reproduction of founder animals. The format is in vivo.
Source text: as §1
In sum, RS-1 is effective on improving knock-in rates in both the TALEN and the Cas9 mediated genome editing systems.

The subject of series [6] is rabbit embryos. Kind of series: Embryo development (blastocyst rate) after microinjection and treatment. The format is cell-based. Conditions: 20 h; for blastocyst development: control 61.2%. As for the experimental part:
as §2, §3

Series [7] has as its system rabbit embryos (rbApoAI locus). Briefly: TALEN mediated knock-in of hApoAII to rbApoAI locus in embryos in vitro. The format is cell-based. To be noted: RS-1 7.5 μM, control 7%. An excerpt:
In another embodiment, we tested the effects of RS-1 in a TALEN mediated knock-in system. We designed and validated TALEN pairs targeting rbApoAI locus for knocking in the hApoAII coding sequence (FIG. 2B).

Series [8] relates to rabbit RLL. Briefly: Cas9 mediated RLL-EGFP knock-in animal production (embryo transfer). Format: in vivo. To be noted: RS-1 7.5 μM. As for the experimental part: In one embodiment, we used RS-1 at 7.5 μM for the in vivo experiments. The sgRNA and donor DNA were used for knocking in EGFP to the rabbit RLL.
In the control group, we transferred a total of 373 embryos to synchronized recipient rabbits and obtained 43 kits. Twenty-nine of these 43 kits (67%) carried indel alleles but with on knock-in alleles. Three are proven as knock-in founders after PCR and sequencing (FIG. 2A). Of note, these three knock-in founders also carry indel alleles. The overall knock-in efficiency is 0.8% calculated by total knock-in founders/total embryos transferred, or 7.0% calculated by total knock-in founders/total kits born.
In the RS-1 treatment group (FIG. 2A), we transferred 146 embryos and obtained 38 kits, 18 of which carried indel but no knock-in alleles (47%). Similar to the in vitro results, the knock-in success rate was multifold higher than that in the control group. A total of 10 knock-in founders were produced, with the knock-in efficiency of 6.8% calculated by total knock-in founders/total embryos transferred, or 26.3% calculated by total knock-in founders/total kits born.

Consider `O=C(Nc1ccc(Br)cc1)c1ccc(Br)c(S(=O)(=O)NCc2ccccc2)c1` [RS-1], for which the “kits carrying indel but no knock-in alleles” value in series [1] (7 of 17 kits) is 41%; in series [8] (18 of 38 kits, control 67%), 47%. Further, the “knock-in efficiency, total knock-in founders/total embryos transferred” value in series [1] (control 0.4%) came out at 2.1%; in series [8] (Cas9, control 0.8%) it was 6.8%. Besides, the “knock-in efficiency, total knock-in founders/total kits born” value is 17.6% in series [1] (control 6.3%) and 26.3% in series [8] (Cas9, control 7.0%). Moreover, the “percentage of embryos carrying knock-in alleles” value in series [2] is listed as 30%; in series [7], 15%. For the same compound, in series [3] (embryos (n=72) parented by founders of RS-1 treated group, other group 18%), the “percentage of WT alleles” value stood at 17%. Also, the “embryos carrying the knock-in allele (knock-in frequency at allele level)” value in series [3] (embryos (n=72) parented by founders of RS-1 treatment group bred with WT, non-treated 14%) is 33%. Also, the “germline transmitting founder animals” value in series [3] (three animals of RS-1 treatment group, non-treatment 50%) was determined as 100%. For the same compound, the knock-in rate in series [4] (RS-1 7.5 μM, 20 h, control 4.8%) turned out to be 26.1%. The knock-in efficiency in series [4] (RS-1 15 μM, 20 h, control 4.8%) was determined as 5.4%. The “increase of knock-in efficiency” value in series [4] (RS-1 at optimal concentration 7.5 μM, different loci (RLL, ApoAI, CFTR), in vitro) is listed as 2- to 5 fold. The “abnormalities in founder animals” value in series [5] (RLL-EGFP and hApoAII founders derived from RS-1 treatment) was “No abnormalities”. The “toxic effects on overall animal health and reproduction” value in series [5] (RS-1 treatment of embryos) was “does not appear to have any toxic effects”. Further, the blastocyst development in series [6] (RS-1 7.5 μM) is on record as 57.6%; in series [6] (RS-1 15 μM), 82.2%.

With `O=c1[nH]c(=S)[nH]c(N=Cc2ccccc2)c1N=Cc1ccccc1` [SCR7], the “effect on overall knock-in efficiency” value in series [4] (SCR7 20, 40, 80 μM for 20 h vs control) is given as “minimal effects; also recorded: no significant effects”. Also, the overall knock-in efficiency in series [4] (SCR7 treatment groups 20-80 μM, 20 h, control 7.1%) is listed as 7.7-9.4%. In series [6] (SCR7 20, 40, 80 μM, judged by blastocyst rates), the “effect on embryo development” value is listed as “no effects on embryo development”. The blastocyst rate in series [6] (SCR7 treatment conditions (up to 80 μM)) is listed as 62-72%.

The values are drawn from patent US20170081679A1, “METHODS OF IMPROVING NUCLEASE MEDIATED HOMOLOGOUS RECOMBINATION” (priority 2015, published 2017).
